Data from US5545618A, “GLP-1 analogs useful for diabetes treatment” (priority 1993, dated 1996).
Read-outs that look alike come from different tables or passages of the source. One block for each molecule: values may come before it. Where no end group is shown, it is not given here.

Legend:
RIN 1046-38 cells = system: RIN 1046-38 cells
Method: An additional test for potency of the compounds of the invention measures their ability to stimulate cAMP production in RIN 1046-38 cells. This assay can be conducted as follows:
On day 1, 5×10^5 RIN 1046-38 cells (Drucker, D. J., et al., Proc Natl Acad Sci USA (1987) 84:3434-3438) are seeded into individual wells of 6-well dishes with 2.5 mL M199 culture medium. On day 4, cells are re-fed with fresh medium and on day 5 the assay is performed. […] Assays are only performed on cell passage ≤24.
At time -60 min, monolayers are washed twice with 2.5 mL PBS, and medium is changed to 1.0 mL of DMEM medium plus 4.5 g/l glucose and 0.1% BSA (assay medium). At 0 time, medium is aspirated and fresh assay medium, 1.0 mL, containing test compound is added. Test compound is added in 50 ul volume of PBS plus 0.1% BSA; controls are added in vehicle alone. Incubation is continued for 0 to 60 min.
At termination, conditioned medium and monolayer are harvested to measure both extra- and intracellular cAMP content. For extracellular measurement, medium is removed and centrifuged to remove any cellular debris. For intracellular determination, after medium removal, 1.0 mL of ice cold 95% ethanol is added to monolayer. Cells are collected by scraping, lysed by two cycles of quick freeze/thawing using liquid N2, and cell debris then removed by centrifugation. Aliquots (1/40th well content) of conditioned medium and ethanol cell extract are measured in duplicate for cAMP levels using an RIA kit by the acetylated protocol.
Insulin secretion can also be measured by the method described by Holst, J. J., et al. FEBS Letters (1987) 211:169-174 (supra). Also useful as an assay for insulinotropic effect is the measurement of stimulation of adenylate cyclase in the RIN 1046-38 cell line. Drucker, D. J. et al., Proc Natl Acad Sci USA (1987) 84:3434-3438 (supra).

[1] = degradation in plasma by RP-HPLC; type: in vitro ADME; settings: incubation in plasma for 60 minutes; also: key: +: degradation was not observed; -: was complete after this time
[2] = type: in vitro ADME
Method: Polyclonal antisera were raised in New Zealand White rabbits against a synthetic peptide fragment corresponding to residues 24 to 37 of GLP-1(7-37) using the method of Mosjoy, S. et al., J Biol Chem (1986) 261:11880-11889. Initial immunizations were into the inguinal lymph nodes and used Freund's complete adjuvant. Two subcutaneous boosts were performed at 1 week intervals after the initial immunization and used Freund's incomplete adjuvant. For a single immunization or boost 100 μg peptide and 100 μg methylated BSA dissolved in 0.3 mL phosphate-buffered saline (PBS) were emulsified with 0.9 mL adjuvant. Bleeds (50 mL) began at week 6 after the initial immunization and continued at 1 month intervals thereafter. Repeat boosts were performed as above when titers dropped noticeably from the level of the previous bleed.

Resistance to Degradation [1]: -
Molecule: CC[C@H](C)[C@H](NC(=O)[C@H](Cc1ccccc1)NC(=O)[C@H](CCC(=O)O)NC(=O)[C@H](CCCCN)NC(=O)[C@H](C)NC(=O)[C@H](C)NC(=O)[C@H](CCC(N)=O)NC(=O)CNC(=O)[C@H](CCC(=O)O)NC(=O)[C@H](CC(C)C)NC(=O)[C@H](Cc1ccc(O)cc1)NC(=O)[C@H](CO)NC(=O)[C@H](CO)NC(=O)[C@@H](NC(=O)[C@H](CC(=O)O)NC(=O)[C@H](CO)NC(=O)[C@@H](NC(=O)[C@H](Cc1ccccc1)NC(=O)[C@@H](NC(=O)CNC(=O)[C@@H](CC(=O)O)NC(=O)[C@H](C)NC(=O)[C@@H](N)Cc1c[nH]cn1)[C@@H](C)O)[C@@H](C)O)C(C)C)C(=O)N[C@@H](C)C(=O)N[C@@H](Cc1c[nH]c2ccccc12)C(=O)N[C@@H](CC(C)C)C(=O)N[C@H](C(=O)N[C@@H](CCCCN)C(=O)NCC(=O)N[C@@H](CCCNC(=N)N)C(=O)NCC(=O)O)C(C)C [(D^.dagger.)^9 -GLP-1(7-37)]
ED50 nM Duplicate Assays (first value) (RIN 1046-38 cells): 0.90 nM | ED50 nM Duplicate Assays (second value) (RIN 1046-38 cells): 0.90 nM

Resistance to Degradation [1]: -
Molecule: CC[C@H](C)[C@H](NC(=O)[C@H](Cc1ccccc1)NC(=O)[C@H](CCC(=O)O)NC(=O)[C@H](CCCCN)NC(=O)[C@H](C)NC(=O)[C@H](C)NC(=O)[C@H](CCC(N)=O)NC(=O)CNC(=O)[C@H](CCC(=O)O)NC(=O)[C@H](CC(C)C)NC(=O)[C@H](Cc1ccc(O)cc1)NC(=O)[C@H](CO)NC(=O)[C@H](CO)NC(=O)[C@@H](NC(=O)[C@H](CC(=O)O)NC(=O)[C@H](CO)NC(=O)[C@@H](NC(=O)[C@H](Cc1ccccc1)NC(=O)[C@@H](NC(=O)CNC(=O)[C@H](CCC(N)=O)NC(=O)[C@H](C)NC(=O)[C@@H](N)Cc1c[nH]cn1)[C@@H](C)O)[C@@H](C)O)C(C)C)C(=O)N[C@@H](C)C(=O)N[C@@H](Cc1c[nH]c2ccccc12)C(=O)N[C@@H](CC(C)C)C(=O)N[C@H](C(=O)N[C@@H](CCCCN)C(=O)NCC(=O)N[C@@H](CCCNC(=N)N)C(=O)NCC(=O)O)C(C)C [(Q)^9 GLP-1 (7-37)]

Resistance to Degradation [1]: -
Molecule: CC[C@H](C)[C@H](NC(=O)[C@H](Cc1ccccc1)NC(=O)[C@H](CCC(=O)O)NC(=O)[C@H](CCCCN)NC(=O)[C@H](C)NC(=O)[C@H](C)NC(=O)[C@H](CCC(N)=O)NC(=O)CNC(=O)[C@H](CCC(=O)O)NC(=O)[C@H](CC(C)C)NC(=O)[C@H](Cc1ccc(O)cc1)NC(=O)[C@H](CO)NC(=O)[C@H](CO)NC(=O)[C@@H](NC(=O)[C@H](CC(=O)O)NC(=O)[C@H](CO)NC(=O)[C@@H](NC(=O)[C@H](Cc1ccccc1)NC(=O)[C@@H](NC(=O)CNC(=O)[C@H](CCC(=O)O)NC(=O)[C@H](C)NC(=O)[C@@H](N)Cc1ccc(O)cc1)[C@@H](C)O)[C@@H](C)O)C(C)C)C(=O)N[C@@H](C)C(=O)N[C@@H](Cc1c[nH]c2ccccc12)C(=O)N[C@@H](CC(C)C)C(=O)N[C@H](C(=O)N[C@@H](CCCCN)C(=O)NCC(=O)N[C@@H](CCCNC(=N)N)C(=O)NCC(=O)O)C(C)C [(Y)^7 -GLP-1(7-37)]

Molecule: GLP-1(7-37)
ED50 nM Duplicate Assays (first value) (RIN 1046-38 cells; cAMP stimulation in RIN 1046-38 cells, first of duplicate assays): 0.16 nM | ED50 nM Duplicate Assays (second value) (RIN 1046-38 cells; cAMP stimulation in RIN 1046-38 cells, second of duplicate assays): 0.25 nM | ability of recovered fragment to inhibit binding of radiolabeled GLP-1(7-37) to carboxy terminal-specific antibody [2]: no diminution

Resistance to Degradation [1]: -
Molecule: HSQGTFTSDYSKYLDGQAAKEFIAWLVKGRG [(S)^8 (Q)^9 (Y)^16 (K)^18 (D)^21 -GLP-1(7-37)]
